Experimental data as given in PubChem BioAssay AID1963864 (Molecular Pharmacology Branch, DTP, NCI, 2024).

Tested on: KRAS PDC multicell spheroid viability
Experiment: Anticancer human tumor 521955-158-R6-J3-PDC patient-derived pancreatic carcinoma cell line growth inhibition [KRAS2]
Settings: for IC50: curve of first compound; for viability, T/C: stronger effect = lower value; active means viability on the fitted dose curve at most 10% of control; inactive means the rest
Outline: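 Combination screen of spheroid viability in tumor-cell co-cultures with endothelial (HUVEC) and mesenchymal stem cell stroma. Each agent was tested in half-log dilutions, topping at clinical Cmax or at 10 microM without a known Cmax.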

[1] = second compound 0.1 µM, first compound 0.000316 µM
[2] = second compound 0.1 µM, first compound 0.001 µM
[3] = second compound 0.1 µM, first compound 0.00316 µM
[4] = second compound 0.1 µM, first compound 0.01 µM
[5] = second compound 0.1 µM, first compound 0.0316 µM
[6] = second compound 0.316 µM, first compound 0.000316 µM
[7] = second compound 0.316 µM, first compound 0.001 µM
[8] = second compound 0.316 µM, first compound 0.00316 µM
[9] = second compound 0.316 µM, first compound 0.01 µM
[10] = second compound 0.316 µM, first compound 0.0316 µM
[11] = second compound 1 µM, first compound 0.000316 µM
[12] = second compound 1 µM, first compound 0.001 µM
[13] = second compound 1 µM, first compound 0.00316 µM
[14] = second compound 1 µM, first compound 0.01 µM
[15] = second compound 1 µM, first compound 0.0316 µM
[16] = second compound 3.16 µM, first compound 0.000316 µM
[17] = second compound 3.16 µM, first compound 0.001 µM
[18] = second compound 3.16 µM, first compound 0.00316 µM
[19] = second compound 3.16 µM, first compound 0.01 µM
[20] = second compound 3.16 µM, first compound 0.0316 µM
[21] = second compound 10 µM, first compound 0.000316 µM
[22] = second compound 10 µM, first compound 0.001 µM
[23] = second compound 10 µM, first compound 0.00316 µM
[24] = second compound 10 µM, first compound 0.01 µM
[25] = second compound 10 µM, first compound 0.0316 µM
[26] = second compound 0.1 µM, first compound 0.1 µM
[27] = second compound 0.316 µM, first compound 0.1 µM
[28] = second compound 1 µM, first compound 0.1 µM
[29] = second compound 3.16 µM, first compound 0.1 µM
[30] = second compound 10 µM, first compound 0.1 µM
[31] = second compound 0.1 µM, first compound 0.316 µM
[32] = second compound 0.1 µM, first compound 1 µM
[33] = second compound 0.1 µM, first compound 3.16 µM
[34] = second compound 0.1 µM, first compound 10 µM
[35] = second compound 0.316 µM, first compound 0.316 µM
[36] = second compound 0.316 µM, first compound 1 µM
[37] = second compound 0.316 µM, first compound 3.16 µM
[38] = second compound 0.316 µM, first compound 10 µM
[39] = second compound 1 µM, first compound 0.316 µM
[40] = second compound 1 µM, first compound 1 µM
[41] = second compound 1 µM, first compound 3.16 µM
[42] = second compound 1 µM, first compound 10 µM
[43] = second compound 3.16 µM, first compound 0.316 µM
[44] = second compound 3.16 µM, first compound 1 µM
[45] = second compound 3.16 µM, first compound 3.16 µM
[46] = second compound 3.16 µM, first compound 10 µM
[47] = second compound 10 µM, first compound 0.316 µM
[48] = second compound 10 µM, first compound 1 µM
[49] = second compound 10 µM, first compound 3.16 µM
[50] = second compound 10 µM, first compound 10 µM
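Further: drug exposure lasted seven days.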
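Wherever viability, T/C is given: 100% = DMSO vehicle wells and lower means fewer viable cells.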

CC(=O)Nc1cccc(-n2c(=O)n(C3CC3)c(=O)c3c(Nc4ccc(I)cc4F)n(C)c(=O)c(C)c32)c1 + CNCc1ccccc1-c1csc(C(C)Nc2nc(C)nc3cc(OC)c(OC)cc23)c1
< 0.1 nM: IC50 (second compound 3.16 µM) | IC50 (second compound 10 µM)
15.1 nM: IC50 (second compound 0.316 µM)
inactive: viability, T/C (second compound 0.1 µM, first compound 0.0001 µM) 84.3% | viability, T/C [1] 83.3% | viability, T/C [2] 88.9% | viability, T/C [3] 75% | viability, T/C [4] 60.7% | viability, T/C [5] 37.4% | viability, T/C (second compound 0.316 µM, first compound 0.0001 µM) 70.3% | viability, T/C [6] 90.2% | viability, T/C [7] 80.8% | viability, T/C [8] 72.4% | viability, T/C [9] 60% | viability, T/C [10] 33.2% | viability, T/C (second compound 1 µM, first compound 0.0001 µM) 69.1% | viability, T/C [11] 76.6% | viability, T/C [12] 65.9% | viability, T/C [13] 58.4% | viability, T/C [14] 35.3% | viability, T/C [15] 12.3%
4.73 nM: IC50 (second compound 1 µM)
16.7 nM: IC50 (second compound 0.1 µM)
active: viability, T/C (second compound 3.16 µM, first compound 0.0001 µM) 1.97% | viability, T/C [16] 0.17% | viability, T/C [17] 7.16% | viability, T/C [18] 2.18% | viability, T/C [19] 8.31% | viability, T/C [20] 1.89% | viability, T/C (second compound 10 µM, first compound 0.0001 µM) 2.4% | viability, T/C [21] 1.9% | viability, T/C [22] 0.16% | viability, T/C [23] 0.16% | viability, T/C [24] 4.06% | viability, T/C [25] 0.45%

CC(C)n1nc(-c2ccc3oc(N)nc3c2)c2c(N)ncnc21 + CNCc1ccccc1-c1csc(C(C)Nc2nc(C)nc3cc(OC)c(OC)cc23)c1
41.3 nM: IC50 (second compound 0.316 µM)
inactive: viability, T/C [1] 88.1% | viability, T/C [2] 89.9% | viability, T/C [3] 81.2% | viability, T/C [4] 71.2% | viability, T/C [5] 63.3% | viability, T/C [26] 46.2% | viability, T/C [6] 82.3% | viability, T/C [7] 81.1% | viability, T/C [8] 74.6% | viability, T/C [9] 61.1% | viability, T/C [10] 54.3% | viability, T/C [27] 42.1% | viability, T/C [11] 78.5% | viability, T/C [12] 73% | viability, T/C [13] 73.6% | viability, T/C [14] 64.2% | viability, T/C [15] 54.6% | viability, T/C [28] 47.2%
active: viability, T/C [16] 1.65% | viability, T/C [17] 1.07% | viability, T/C [18] 1.66% | viability, T/C [19] 1.02% | viability, T/C [20] 1.57% | viability, T/C [29] 1.6% | viability, T/C [21] 0.75% | viability, T/C [22] 0.17% | viability, T/C [23] 0.16% | viability, T/C [24] 0.15% | viability, T/C [25] 0.16% | viability, T/C [30] 0.24%
< 0.316 nM: IC50 (second compound 3.16 µM) | IC50 (second compound 10 µM)
64.8 nM: IC50 (second compound 1 µM)
77.2 nM: IC50 (second compound 0.1 µM)

CC1(C)CCC(CN2CCN(c3ccc(C(=O)NS(=O)(=O)c4ccc(NCC5CCOCC5)c([N+](=O)[O-])c4)c(Oc4cnc5[nH]ccc5c4)c3)CC2)=C(c2ccc(Cl)cc2)C1 + CNCc1ccccc1-c1csc(C(C)Nc2nc(C)nc3cc(OC)c(OC)cc23)c1
inactive: viability, T/C [5] 98.5% | viability, T/C [26] 98.1% | viability, T/C [31] 94.6% | viability, T/C [32] 97.1% | viability, T/C [33] 81.3% | viability, T/C [34] 32.9% | viability, T/C [10] 96.8% | viability, T/C [27] 90.5% | viability, T/C [35] 90.2% | viability, T/C [36] 84.2% | viability, T/C [37] 71% | viability, T/C [38] 23.2% | viability, T/C [15] 83% | viability, T/C [28] 83.6% | viability, T/C [39] 84.4% | viability, T/C [40] 82.6% | viability, T/C [41] 56.8% | viability, T/C [42] 14.7%
active: viability, T/C [20] 0.59% | viability, T/C [29] 1.4% | viability, T/C [43] 0.57% | viability, T/C [44] 0.81% | viability, T/C [45] 1.65% | viability, T/C [46] 3.03% | viability, T/C [25] 0.22% | viability, T/C [30] 0.61% | viability, T/C [47] 0.21% | viability, T/C [48] 0.23% | viability, T/C [49] 1.01% | viability, T/C [50] 0.27%
3810 nM: IC50 (second compound 1 µM)
< 31.6 nM: IC50 (second compound 3.16 µM) | IC50 (second compound 10 µM)
6690 nM: IC50 (second compound 0.1 µM)
5170 nM: IC50 (second compound 0.316 µM)

COc1cc(Nc2ncc3c(n2)-c2ccc(Cl)cc2C(c2c(F)cccc2OC)=NC3)ccc1C(=O)O + CNCc1ccccc1-c1csc(C(C)Nc2nc(C)nc3cc(OC)c(OC)cc23)c1
> 10000 nM: IC50 (second compound 0.1 µM) | IC50 (second compound 0.316 µM) | IC50 (second compound 1 µM)
inactive: viability, T/C [5] 95.5% | viability, T/C [26] 89.9% | viability, T/C [31] 94.6% | viability, T/C [32] 101% | viability, T/C [33] 113% | viability, T/C [34] 89.4% | viability, T/C [10] 104% | viability, T/C [27] 84.6% | viability, T/C [35] 90.9% | viability, T/C [36] 88.7% | viability, T/C [37] 90.7% | viability, T/C [38] 104% | viability, T/C [15] 93.6% | viability, T/C [28] 73.3% | viability, T/C [39] 86.7% | viability, T/C [40] 78.2% | viability, T/C [41] 87.3% | viability, T/C [42] 88.6%
< 31.6 nM: IC50 (second compound 3.16 µM) | IC50 (second compound 10 µM)
active: viability, T/C [20] 1.45% | viability, T/C [29] 0.8% | viability, T/C [43] 0.53% | viability, T/C [44] 1.47% | viability, T/C [45] 2.38% | viability, T/C [46] 2.86% | viability, T/C [25] 0.82% | viability, T/C [30] 1.21% | viability, T/C [47] 0.68% | viability, T/C [48] 0.35% | viability, T/C [49] 0.3% | viability, T/C [50] 0.59%

COc1cc2nccc(Oc3ccc(NC(=O)C4(C(=O)Nc5ccc(F)cc5)CC4)cc3)c2cc1OC + CNCc1ccccc1-c1csc(C(C)Nc2nc(C)nc3cc(OC)c(OC)cc23)c1
> 10000 nM: IC50 (second compound 0.1 µM) | IC50 (second compound 0.316 µM)
< 31.6 nM: IC50 (second compound 3.16 µM) | IC50 (second compound 10 µM)
inactive: viability, T/C [5] 91.1% | viability, T/C [26] 102% | viability, T/C [31] 101% | viability, T/C [32] 108% | viability, T/C [33] 125% | viability, T/C [34] 133% | viability, T/C [10] 94.3% | viability, T/C [27] 92.9% | viability, T/C [35] 90.2% | viability, T/C [36] 87.7% | viability, T/C [37] 119% | viability, T/C [38] 109% | viability, T/C [15] 80.1% | viability, T/C [28] 75.1% | viability, T/C [39] 79.3% | viability, T/C [40] 83.9% | viability, T/C [41] 32.2% | viability, T/C [42] 38.4% | viability, T/C [25] 13.4%
2160 nM: IC50 (second compound 1 µM)
active: viability, T/C [20] 0.94% | viability, T/C [29] 0.35% | viability, T/C [43] 0.42% | viability, T/C [44] 0.24% | viability, T/C [45] 0.24% | viability, T/C [46] 0.24% | viability, T/C [30] 0.23% | viability, T/C [47] 0.2% | viability, T/C [48] 0.21% | viability, T/C [49] 0.2% | viability, T/C [50] 0.28%

Cn1ncnc1[C@H]1c2n[nH]c(=O)c3cc(F)cc(c23)N[C@@H]1c1ccc(F)cc1 + CNCc1ccccc1-c1csc(C(C)Nc2nc(C)nc3cc(OC)c(OC)cc23)c1
> 100 nM: IC50 (second compound 0.1 µM) | IC50 (second compound 0.316 µM) | IC50 (second compound 1 µM)
< 0.316 nM: IC50 (second compound 3.16 µM) | IC50 (second compound 10 µM)
active: viability, T/C [16] 0.28% | viability, T/C [17] 2.23% | viability, T/C [18] 0.7% | viability, T/C [19] 0.93% | viability, T/C [20] 1.22% | viability, T/C [29] 1.42% | viability, T/C [21] 0.15% | viability, T/C [22] 0.17% | viability, T/C [23] 0.15% | viability, T/C [24] 0.86% | viability, T/C [25] 0.21% | viability, T/C [30] 0.26%
inactive: viability, T/C [1] 96.3% | viability, T/C [2] 93.7% | viability, T/C [3] 85.5% | viability, T/C [4] 92.1% | viability, T/C [5] 85.9% | viability, T/C [26] 90.6% | viability, T/C [6] 89.1% | viability, T/C [7] 82.2% | viability, T/C [8] 91.1% | viability, T/C [9] 80% | viability, T/C [10] 80.5% | viability, T/C [27] 72.2% | viability, T/C [11] 68.3% | viability, T/C [12] 78.4% | viability, T/C [13] 72.2% | viability, T/C [14] 74.4% | viability, T/C [15] 78.4% | viability, T/C [28] 70.2%
